This note sets out measurements from PMC6010119 (Journal of Enzyme Inhibition and Medicinal Chemistry, 2017).

As usually defined, the IC50 is the midpoint of a concentration-inhibition curve.

The test system of assay [1] is A549 lung cancer cells. The assay can be described thus: cells. As to conditions: Homo sapiens, A549, read-out: IC50 on A549.
Assay [2] has as its target EGFR (Homo sapiens, UniProt P00533). The assay is classed as biochemical. As to conditions: test concentration not given; conclusion says EGFR in A549 cancer cells.

Sequence of EGFR (P00533 25-1210): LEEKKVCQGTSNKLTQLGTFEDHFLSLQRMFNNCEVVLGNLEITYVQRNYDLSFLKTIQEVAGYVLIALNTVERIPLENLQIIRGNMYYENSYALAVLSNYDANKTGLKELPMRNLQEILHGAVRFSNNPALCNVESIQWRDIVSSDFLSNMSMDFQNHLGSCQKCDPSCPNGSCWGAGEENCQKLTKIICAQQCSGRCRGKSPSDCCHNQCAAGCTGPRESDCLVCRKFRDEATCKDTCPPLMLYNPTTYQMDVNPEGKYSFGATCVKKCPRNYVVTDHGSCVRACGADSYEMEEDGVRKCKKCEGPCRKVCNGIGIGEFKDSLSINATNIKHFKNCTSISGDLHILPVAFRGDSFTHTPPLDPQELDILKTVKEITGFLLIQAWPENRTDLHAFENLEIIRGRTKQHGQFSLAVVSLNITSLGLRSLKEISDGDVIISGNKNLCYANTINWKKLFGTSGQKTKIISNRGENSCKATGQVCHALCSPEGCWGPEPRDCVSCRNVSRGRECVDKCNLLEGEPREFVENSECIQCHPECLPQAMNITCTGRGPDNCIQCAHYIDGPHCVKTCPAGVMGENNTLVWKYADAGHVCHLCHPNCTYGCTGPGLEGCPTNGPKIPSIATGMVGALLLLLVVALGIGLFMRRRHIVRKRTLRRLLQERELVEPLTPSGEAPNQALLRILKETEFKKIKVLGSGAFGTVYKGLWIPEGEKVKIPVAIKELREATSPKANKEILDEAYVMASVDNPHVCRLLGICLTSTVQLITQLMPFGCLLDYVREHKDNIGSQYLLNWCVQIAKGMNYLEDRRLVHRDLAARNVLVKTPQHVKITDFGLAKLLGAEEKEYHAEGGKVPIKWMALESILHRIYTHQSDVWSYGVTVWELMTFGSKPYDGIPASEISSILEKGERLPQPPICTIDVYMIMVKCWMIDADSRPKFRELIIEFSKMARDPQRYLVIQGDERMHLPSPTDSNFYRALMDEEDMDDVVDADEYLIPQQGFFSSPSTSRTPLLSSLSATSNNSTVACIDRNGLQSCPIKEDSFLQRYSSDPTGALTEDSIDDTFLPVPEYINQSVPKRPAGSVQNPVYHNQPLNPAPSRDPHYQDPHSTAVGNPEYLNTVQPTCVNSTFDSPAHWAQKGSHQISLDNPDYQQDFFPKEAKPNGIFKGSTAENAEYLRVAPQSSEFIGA

As for `NS(=O)(=O)c1ccc(-n2c(SCC(=O)Nc3ccccc3)nc3cc4ccccc4cc3c2=O)cc1` [Compound 5, 2-(4-Oxo-3-(4-sulfamoylphenyl)-3,4-dihydrobenzo[g]quinazolin-2-ylthio)-N-phenylacetamide], the IC50 in assay [1] came out at 1017 ± 10 nM. The “% inhibition of EGFR” value in assay [2] is reported as 55.58%. As to `Cc1ccccc1NC(=O)CSc1nc2cc3ccccc3cc2c(=O)n1-c1ccc(S(N)(=O)=O)cc1` [Compound 6, 2-(4-Oxo-3-(4-sulfamoylphenyl)-3,4-dihydrobenzo[g]quinazolin-2-ylthio)-N-o-tolylacetamide], the IC50 in assay [1] was 105 ± 12 nM. In addition, the “% inhibition of EGFR” value in assay [2] was 84.31%. As to `Cc1cccc(NC(=O)CSc2nc3cc4ccccc4cc3c(=O)n2-c2ccc(S(N)(=O)=O)cc2)c1` [Compound 7, 2-(4-Oxo-3-(4-sulfamoylphenyl)-3,4-dihydrobenzo[g]quinazolin-2-ylthio)-N-m-tolylacetamide], the IC50 in assay [1] turned out to be 1271 ± 2 nM. In addition, the “% inhibition of EGFR” value in assay [2] was found to be 66.85%.

`Cc1ccc(NC(=O)CSc2nc3cc4ccccc4cc3c(=O)n2-c2ccc(S(N)(=O)=O)cc2)cc1` [Compound 8, 2-(4-Oxo-3-(4-sulfamoylphenyl)-3,4-dihydrobenzo[g]quinazolin-2-ylthio)-N-p-tolylacetamide]: the IC50 in assay [1] amounted to 220 ± 120 nM. Moreover, the “% inhibition of EGFR” value in assay [2] is 90.21%. For `COc1cc(NC(=O)CSc2nc3cc4ccccc4cc3c(=O)n2-c2ccc(S(N)(=O)=O)cc2)cc(OC)c1OC` [Compound 15, 2-(4-Oxo-3-(4-sulfamoylphenyl)-3,4-dihydrobenzo[g]quinazolin-2-ylthio)-N-(3,4,5-trimethoxyphenyl)acetamide] the same measures were 545 ± 3 nM and 58.04%. As for `C#Cc1cccc(Nc2ncnc3cc(OCCOC)c(OCCOC)cc23)c1` [Erlotinib, reference compound], in assay [1], the IC50 came out at 727 ± 8 nM.
